These results are taken from PubChem BioAssay AID504867 (The Scripps Research Institute Molecular Screening Center, 2011).

The experiment deals with Sphingosine 1-phosphate receptor 5 (Homo sapiens) (UniProt Q9H228). As to the kind of experiment: activation of human S1P5 receptor – cell-based, fluorescence, set 2, counter-screen for S1P4 agonist project, late-stage follow-up (AID 504867). The settings on record: S1P5 agonist cell assay, fluorescence read-out. On the technique in general: The purpose of a counterscreen is to sort out artefacts and off-target activity.
Sphingosine 1-phosphate receptor 5 (Homo sapiens), sequence (Q9H228 whole entry, looked up): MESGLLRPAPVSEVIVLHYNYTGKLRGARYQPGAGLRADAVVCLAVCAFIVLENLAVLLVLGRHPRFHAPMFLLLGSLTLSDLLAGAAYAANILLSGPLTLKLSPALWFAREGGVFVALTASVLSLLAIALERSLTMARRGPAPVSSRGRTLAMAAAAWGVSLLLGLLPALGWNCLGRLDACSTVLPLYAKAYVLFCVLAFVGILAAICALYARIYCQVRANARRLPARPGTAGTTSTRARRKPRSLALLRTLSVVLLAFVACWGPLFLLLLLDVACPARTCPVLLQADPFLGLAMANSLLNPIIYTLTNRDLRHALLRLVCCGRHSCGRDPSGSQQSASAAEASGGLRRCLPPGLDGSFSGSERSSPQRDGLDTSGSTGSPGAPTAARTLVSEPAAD

The term EC50 denotes the concentration giving half of the maximal effect. Take `COCCN=C1S/C(=C\c2cc(C)n(-c3ccc(F)cc3F)c2C)C(=O)N1C`: the EC50 is 2.1 µM.
